Measurements published in ChEMBL document CHEMBL1157218, “Cycloviolacin H4, a hydrophobic cyclotide from Viola hederaceae” (J Nat Prod, 2006).
Bridge positions count the residues as written; N and C are the ends. Peptide text beside a SMILES is read from it.

What was measured:
[1] = Toxicity against human type A red blood cells assessed as hemolytic activity after 1hr; type: cell-based, Erythrocyte; details: read-out: HD50
[2] = Toxicity against human type A red blood cells assessed as hemolytic activity at 80 uM after 1 ht; type: cell-based, Erythrocyte; details: read-out: Activity

CC(C)C[C@@H]1NC(=O)CNC(=O)[C@H](CC(N)=O)NC(=O)[C@H](CCCNC(=N)N)NC(=O)[C@H]([C@@H](C)O)NC(=O)[C@@H]2CSSC[C@@H]3NC(=O)[C@H]([C@@H](C)O)NC(=O)CNC(=O)CNC(=O)[C@H](C(C)C)NC(=O)[C@@H]4CSSC[C@H](NC(=O)[C@H]([C@@H](C)O)NC(=O)[C@H](CSSC[C@H](NC(=O)[C@H](C(C)C)NC(=O)[C@@H]5CCCN5C1=O)C(=O)NCC(=O)N[C@@H](CCC(=O)O)C(=O)N[C@@H]([C@@H](C)O)C(=O)N4)NC(=O)CNC(=O)[C@@H]1CCCN1C(=O)[C@H]([C@@H](C)O)NC(=O)[C@H](CC(N)=O)NC3=O)C(=O)N[C@@H](CO)C(=O)N[C@@H](Cc1c[nH]c3ccccc13)C(=O)N1CCC[C@H]1C(=O)N[C@@H](C(C)C)C(=O)N2 [KALATA B1]
HC50 at 1 h [1]: 12.7 µM

CC[C@H](C)[C@@H]1NC(=O)[C@H]([C@@H](C)O)NC(=O)CNC(=O)CNC(=O)[C@H](CC(N)=O)NC(=O)[C@H]([C@@H](C)O)NC(=O)CNC(=O)[C@H](Cc2ccc(O)cc2)NC(=O)[C@@H]2CSSC[C@@H]3NC(=O)[C@H]([C@@H](C)O)NC(=O)CNC(=O)[C@H](CC(C)C)NC(=O)[C@H](Cc4ccccc4)NC(=O)[C@@H]4CSSC[C@H](NC(=O)[C@H](CO)NC(=O)[C@H](CSSC[C@H](NC(=O)[C@H](CC(=O)O)NC(=O)[C@H](Cc5ccccc5)NC1=O)C(=O)NCC(=O)N[C@@H](CCC(=O)O)C(=O)N[C@@H](CO)C(=O)N4)NC(=O)CNC(=O)[C@H](CCCCN)NC(=O)[C@H]([C@@H](C)O)NC(=O)[C@H](Cc1ccc(O)cc1)NC3=O)C(=O)NCC(=O)N[C@@H](CCC(=O)O)C(=O)N[C@@H](Cc1c[nH]c3ccccc13)C(=O)N[C@@H](CCCCN)C(=O)N[C@@H](CC(C)C)C(=O)N2 [TRICYCLON A] (cyclo(CFLGTCYTKGCSCGEWKLCYGTNGGTIFDCGES); disulfide 1-13, 6-19, 11-30)
hemolysis at 1 h, 80 µM [2]: 2%

CC[C@H](C)[C@@H]1NC(=O)CNC(=O)[C@H](CC(N)=O)NC(=O)[C@H](Cc2ccc(O)cc2)NC(=O)[C@@H]2CSSC[C@@H]3NC(=O)[C@@H]4CCCN4C(=O)[C@H]([C@@H](C)CC)NC(=O)[C@H](Cc4c[nH]c5ccccc45)NC(=O)[C@H](C(C)C)NC(=O)[C@@H]4CSSC[C@H](NC(=O)[C@H](CO)NC(=O)[C@H](CSSC[C@H](NC(=O)[C@@H]5CCCN5C1=O)C(=O)N[C@@H](C)C(=O)N[C@@H](CCC(=O)O)C(=O)N[C@@H](CO)C(=O)N4)NC(=O)CNC(=O)[C@H](CC(C)C)NC(=O)[C@H](CC(C)C)NC(=O)[C@H](C)NC(=O)[C@H]([C@@H](C)O)NC(=O)[C@H](C(C)C)NC(=O)[C@H]([C@@H](C)O)NC3=O)C(=O)N[C@@H](CO)C(=O)N[C@@H](CC(N)=O)C(=O)N[C@@H](CC(N)=O)C(=O)N[C@@H](C(C)C)C(=O)N2 [cycloviolacin H4] (cyclo(AESCVWIPCTVTALLGCSCSNNVCYNGIPC); disulfide 4-19, 9-24, 17-30)
HC50 at 1 h [1]: 5.5 µM
